pEC50: −log10 of the molar value. Like-named read-outs stand apart in the source and are kept apart here. Where only a bound is given, the exact number is not on record here.

Data set [1] deals with T1, CYP1A2 (Homo sapiens, UniProt P05177).
T1 construct: from tissue; host or cells: human liver microsomes
T1 sequence (P05177 1-516): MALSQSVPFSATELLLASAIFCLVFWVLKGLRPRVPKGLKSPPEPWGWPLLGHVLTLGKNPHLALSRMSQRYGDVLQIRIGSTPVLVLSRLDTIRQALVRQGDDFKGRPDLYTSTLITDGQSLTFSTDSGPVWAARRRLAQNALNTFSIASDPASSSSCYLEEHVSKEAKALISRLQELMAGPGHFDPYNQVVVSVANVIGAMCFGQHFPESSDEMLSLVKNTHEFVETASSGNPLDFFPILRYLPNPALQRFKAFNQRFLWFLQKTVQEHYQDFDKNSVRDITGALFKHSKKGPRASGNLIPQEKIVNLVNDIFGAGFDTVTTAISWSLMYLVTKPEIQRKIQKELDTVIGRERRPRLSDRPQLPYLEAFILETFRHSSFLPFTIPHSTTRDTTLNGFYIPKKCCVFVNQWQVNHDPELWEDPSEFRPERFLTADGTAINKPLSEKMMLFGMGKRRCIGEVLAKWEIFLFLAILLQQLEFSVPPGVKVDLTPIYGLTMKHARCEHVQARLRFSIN
The data set can be described thus: Inhibition of human liver microsomal CYP1A2. Type of data set: in vitro ADME. The settings on record: human liver microsomes, 10 μM test substance; read-out: Relative inhibition rate (%) CYP1A2. As for the experimental part: (§1) Experimental purpose: The inhibitory effects of the test compounds on the major metabolizing enzymes CYP1A2, CYP2C19, CYP2D6 and CYP3A4 in microsomes were evaluated using the human liver microsomal system. Experimental method: The test substance was incubated with a suspension of human liver microsomes containing cytochrome P450 enzymes CYP1A2, CYP2C19, CYP2D6 and CYP3A4 at a concentration of 10 μM in the final incubation system. The known substrates were metabolized by the corresponding single enzymes to generate specific metabolites, and the metabolites were determined by UPLC-MS/MS method. The relative inhibition rate (%) was calculated by the percentage reduction of metabolite production by the test compound and solvent DMSO in the same time period. N is the concentration value of the probe substrate metabolite and it is assumed that the […] with or without inhibitor at 0 min is 0. N+inh is the metabolite concentration in the group with inhibitor, and Nveh is the metabolite concentration in the group without inhibitor. The results of the inhibition test of the compounds of the present invention on human liver microsomal CYP enzymes are shown in Table C.
(In general: Microsomes from liver hold many membrane-bound enzymes, among them those of drug oxidation.)

Data set [2] is described as follows: Cell toxicity (Celltiter-Glo) in HEK-Blue hTLR8 cells. As to conditions: human. A general note: In ATP-based viability assays light output follows the ATP content of the culture.
The target in data set [3] is T2, CYP2D6 (Homo sapiens, UniProt P10635).
T2 construct: from tissue; host or cells: human liver microsomes
T2 sequence (P10635 whole entry): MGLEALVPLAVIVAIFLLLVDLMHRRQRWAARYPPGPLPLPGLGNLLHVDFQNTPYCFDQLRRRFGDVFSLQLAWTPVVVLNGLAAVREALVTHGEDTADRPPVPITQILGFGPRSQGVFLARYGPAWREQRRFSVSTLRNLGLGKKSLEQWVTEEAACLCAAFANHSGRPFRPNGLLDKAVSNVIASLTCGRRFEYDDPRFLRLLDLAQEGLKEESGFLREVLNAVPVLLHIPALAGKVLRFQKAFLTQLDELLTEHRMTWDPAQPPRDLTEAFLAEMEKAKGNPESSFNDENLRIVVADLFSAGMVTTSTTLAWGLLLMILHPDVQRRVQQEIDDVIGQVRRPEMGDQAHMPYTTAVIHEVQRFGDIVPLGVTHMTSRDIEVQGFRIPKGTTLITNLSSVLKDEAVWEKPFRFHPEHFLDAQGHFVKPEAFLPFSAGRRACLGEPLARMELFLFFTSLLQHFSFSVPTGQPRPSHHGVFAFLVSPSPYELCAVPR
As to the kind of experiment: Inhibition of human liver microsomal CYP2D6. Type of data set: in vitro ADME. The settings on record: human liver microsomes, 10 μM test substance; read-out: Relative inhibition rate (%) CYP2D6. As to the method:
as §1

Data set [4] addresses T3, CYP2C19 (Homo sapiens, UniProt P33261).
T3 construct: from tissue; host or cells: human liver microsomes
The data set can be described thus: Inhibition of human liver microsomal CYP2C19. The class given is in vitro ADME. The settings on record: human liver microsomes, 10 μM test substance; read-out: Relative inhibition rate (%) CYP2C19. As for the experimental part:
as §1

Data set [5] has as its target T4, hTLR7 (Homo sapiens, UniProt Q9NYK1).
T4 construct: expressed in transfected cells; host or cells: HEK-Blue hTLR7 cells
T4 sequence (Q9NYK1 27-1049): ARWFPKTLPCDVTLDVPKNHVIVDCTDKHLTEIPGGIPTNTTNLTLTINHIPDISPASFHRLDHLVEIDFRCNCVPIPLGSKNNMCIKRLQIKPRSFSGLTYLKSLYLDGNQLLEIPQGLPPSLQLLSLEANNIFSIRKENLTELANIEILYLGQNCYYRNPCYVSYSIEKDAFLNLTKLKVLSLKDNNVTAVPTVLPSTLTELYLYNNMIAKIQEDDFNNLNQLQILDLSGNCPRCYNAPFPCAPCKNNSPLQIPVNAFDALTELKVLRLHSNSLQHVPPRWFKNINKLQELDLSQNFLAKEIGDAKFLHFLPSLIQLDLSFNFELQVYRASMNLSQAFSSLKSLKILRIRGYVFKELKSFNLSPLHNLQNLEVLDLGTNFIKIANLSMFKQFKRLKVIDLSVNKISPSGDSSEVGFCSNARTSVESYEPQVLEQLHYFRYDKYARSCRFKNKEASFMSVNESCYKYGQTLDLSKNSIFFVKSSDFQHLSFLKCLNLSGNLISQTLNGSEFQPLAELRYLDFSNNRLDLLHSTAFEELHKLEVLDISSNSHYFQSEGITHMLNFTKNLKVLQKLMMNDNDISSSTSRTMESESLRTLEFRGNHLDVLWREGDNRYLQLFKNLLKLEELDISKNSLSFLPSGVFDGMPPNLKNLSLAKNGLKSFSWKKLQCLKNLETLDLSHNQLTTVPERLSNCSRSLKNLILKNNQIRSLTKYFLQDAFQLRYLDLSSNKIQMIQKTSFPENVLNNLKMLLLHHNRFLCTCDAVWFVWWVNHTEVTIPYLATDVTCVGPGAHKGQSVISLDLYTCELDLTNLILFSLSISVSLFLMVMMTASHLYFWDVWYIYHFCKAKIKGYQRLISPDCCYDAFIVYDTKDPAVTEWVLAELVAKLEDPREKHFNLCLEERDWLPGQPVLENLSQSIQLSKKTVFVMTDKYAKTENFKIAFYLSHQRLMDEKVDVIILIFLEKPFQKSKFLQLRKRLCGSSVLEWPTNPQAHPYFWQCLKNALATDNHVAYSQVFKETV
As to the kind of experiment: Agonistic activity on human TLR7 in HEK-Blue hTLR7 cells (QUANTI-Blue). Type of data set: cell-based. The settings on record: 24 h incubation, OD650, read-out: hTLR 7 EC50.

Data set [6] concerns the target T5, hTLR8 (Homo sapiens, UniProt Q9NR97).
T5 construct: expressed in transfected cells; host or cells: HEK-Blue hTLR8 cells
T5 sequence (Q9NR97 27-1041): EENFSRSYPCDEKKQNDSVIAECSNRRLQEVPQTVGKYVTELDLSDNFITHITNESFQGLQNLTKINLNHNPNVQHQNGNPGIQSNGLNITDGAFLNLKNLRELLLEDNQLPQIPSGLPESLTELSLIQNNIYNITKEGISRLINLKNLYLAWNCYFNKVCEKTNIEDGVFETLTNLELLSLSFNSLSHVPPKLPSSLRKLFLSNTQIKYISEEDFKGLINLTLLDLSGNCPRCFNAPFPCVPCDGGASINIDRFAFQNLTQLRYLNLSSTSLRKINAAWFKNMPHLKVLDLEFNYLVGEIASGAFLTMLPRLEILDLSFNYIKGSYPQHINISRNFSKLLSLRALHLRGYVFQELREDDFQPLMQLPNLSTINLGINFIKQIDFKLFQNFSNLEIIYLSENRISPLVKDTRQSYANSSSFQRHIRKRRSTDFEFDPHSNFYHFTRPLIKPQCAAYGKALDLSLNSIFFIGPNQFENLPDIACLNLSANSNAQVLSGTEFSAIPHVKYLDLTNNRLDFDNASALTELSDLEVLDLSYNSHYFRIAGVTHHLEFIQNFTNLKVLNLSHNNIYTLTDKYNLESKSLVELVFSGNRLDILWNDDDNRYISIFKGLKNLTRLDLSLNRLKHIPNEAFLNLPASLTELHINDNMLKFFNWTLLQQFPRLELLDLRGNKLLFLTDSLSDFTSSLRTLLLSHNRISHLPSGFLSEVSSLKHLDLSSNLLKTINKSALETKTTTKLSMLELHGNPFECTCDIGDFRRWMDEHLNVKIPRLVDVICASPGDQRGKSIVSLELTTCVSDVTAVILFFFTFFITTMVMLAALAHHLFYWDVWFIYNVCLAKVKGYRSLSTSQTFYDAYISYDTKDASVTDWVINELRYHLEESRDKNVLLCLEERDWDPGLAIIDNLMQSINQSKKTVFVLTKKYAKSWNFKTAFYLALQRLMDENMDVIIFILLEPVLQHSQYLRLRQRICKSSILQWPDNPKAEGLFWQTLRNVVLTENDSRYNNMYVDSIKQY
The data set can be described thus: Agonistic activity on human TLR8 in HEK-Blue hTLR8 cells (QUANTI-Blue). Type of data set: cell-based. The settings on record: 24 h incubation, OD650, read-out: hTLR 8 EC50.

For data set [7], the target named is T6, CYP3A4 (Homo sapiens, UniProt P08684).
T6 construct: from tissue; host or cells: human liver microsomes
T6 sequence (P08684 whole entry): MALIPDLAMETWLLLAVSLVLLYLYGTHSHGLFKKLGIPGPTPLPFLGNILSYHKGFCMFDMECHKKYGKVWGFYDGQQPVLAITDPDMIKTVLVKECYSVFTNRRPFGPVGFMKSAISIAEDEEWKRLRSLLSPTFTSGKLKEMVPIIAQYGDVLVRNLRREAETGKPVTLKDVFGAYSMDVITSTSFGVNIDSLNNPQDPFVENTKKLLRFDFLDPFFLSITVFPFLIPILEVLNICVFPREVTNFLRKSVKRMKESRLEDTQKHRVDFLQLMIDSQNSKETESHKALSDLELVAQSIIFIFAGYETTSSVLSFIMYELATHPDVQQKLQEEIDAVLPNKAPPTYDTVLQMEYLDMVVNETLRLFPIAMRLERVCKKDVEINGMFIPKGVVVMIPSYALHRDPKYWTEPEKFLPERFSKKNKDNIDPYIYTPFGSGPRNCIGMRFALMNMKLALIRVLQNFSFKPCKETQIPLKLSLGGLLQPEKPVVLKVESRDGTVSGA
The data set can be described thus: Inhibition of human liver microsomal CYP3A4. The class given is in vitro ADME. As to conditions: human liver microsomes, 10 μM test substance. As for the experimental part: as §1

The mark [8] stands for this setting: probe Midazolam, substrate Midazolam, read-out: Relative inhibition rate (%) CYP3A4 (Midazolam).
[9] abbreviates: probe Testosterone, substrate Testosterone, read-out: Relative inhibition rate (%) CYP3A4 (Testosterone).

T3 sequence (P33261 whole entry): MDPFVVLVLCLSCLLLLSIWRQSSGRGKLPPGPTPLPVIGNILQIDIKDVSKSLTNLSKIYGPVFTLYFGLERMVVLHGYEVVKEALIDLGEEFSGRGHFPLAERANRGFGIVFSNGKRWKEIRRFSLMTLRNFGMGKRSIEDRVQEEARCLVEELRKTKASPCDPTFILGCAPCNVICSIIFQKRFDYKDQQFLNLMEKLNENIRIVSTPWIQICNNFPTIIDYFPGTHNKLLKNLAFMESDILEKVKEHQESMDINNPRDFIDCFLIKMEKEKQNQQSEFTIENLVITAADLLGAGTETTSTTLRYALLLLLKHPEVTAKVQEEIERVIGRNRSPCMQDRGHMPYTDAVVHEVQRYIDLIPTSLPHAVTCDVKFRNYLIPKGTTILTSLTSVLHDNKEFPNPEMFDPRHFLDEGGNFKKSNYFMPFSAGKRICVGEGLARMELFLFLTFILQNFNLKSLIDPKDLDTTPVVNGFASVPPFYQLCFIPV

One may read the inhibition as the share of the control response that was lost under treatment. By CC50 is commonly meant the concentration at which the toxic effect on the cells reaches its halfway point. Low readings indicate harm at low concentration, high ones better tolerance by the cells. Usually pEC50 stands for the negative decadic logarithm of the EC50, by convention in mol/L. Turning to `CCCC[C@](C)(CO)Nc1nc(N)nc2cc(-c3cc(=O)[nH]cc3CN(C)CCOC)ccc12` [Example 54, (R)-4-(2-Amino-4-((1-hydroxy-2-methylhexan-2-yl)amino)quinazolin-7-yl)-5-(((2-methoxyethyl)(methyl)amino)methyl)pyridin-2(1H)-one], the inhibition at 10 µM in data set [1] is 7.9%; in data set [3] it was 12.5%; in data set [4] it was 0.8%; in data set [7] (setting [8]), 22.5%; in data set [7] (setting [9]), 8.9%. This compound also registered a CC50 at 24 h in data set [2] of over 100 µM. The figures for the negative logarithm of the EC50 (pEC50) in data set [5] and in data set [6] were under 4.00 and 6.97, respectively.

Consider `CCCC[C@](C)(CO)Nc1nc(N)nc2cc(-c3cc(=O)[nH]cc3COC)cnc12` [Example 51, (R)-4-(2-Amino-4-((1-hydroxy-2-methylhexan-2-yl)amino)pyrido[3,2-d]pyrimidin-7-yl)-5-(methoxymethyl)pyridin-2(1H)-one], for which the inhibition at 10 µM in data set [1] came out at 11.1%; in data set [3] it was 9.6%; in data set [4] it was 22.1%; in data set [7] (setting [8]), 7.4%; in data set [7] (setting [9]), 34.1%. In data set [2], this compound displayed a CC50 at 24 h of over 100 µM. Moreover, the negative-log EC50 (pEC50) in data set [5] was under 4.00; in data set [6] it was 7.92.

Consider `CCCCN(C)Cc1c[nH]c(=O)cc1-c1ccc2c(N[C@@](C)(CO)CCCC)nc(N)nc2c1` [Example 36, (R)-4-(2-Amino-4-((1-hydroxy-2-methylhexan-2-yl)amino)quinazolin-7-yl)-5-((butyl(methyl)amino)methyl)pyridin-2(1H)-one], for which the inhibition at 10 µM in data set [1] is 9%; in data set [3] it was 20.1%; in data set [4], 7%; in data set [7] (setting [8]), 25.9%; in data set [7] (setting [9]), 7.5%. In data set [2], this compound had a CC50 at 24 h of over 100 µM. Also, the pEC50 in data set [5] was under 4.00; in data set [6], 7.18.

Regarding `CCCC[C@](C)(CO)Nc1nc(N)nc2cc(-c3cc(=O)[nH]cc3CN(C)C)cnc12` [Example 50, (R)-4-(2-Amino-4-((1-hydroxy-2-methylhexan-2-yl)amino)pyrido[3,2-d]pyrimidin-7-yl)-5-((dimethylamino)methyl)pyridin-2(1H)-one], the inhibition at 10 µM is 10.7% in data set [1]; 9.7% in data set [3]; 11.4% in data set [4]; 13.7% in data set [7] (setting [8]); 11.6% in data set [7] (setting [9]). This compound showed a half-maximal cytotoxic concentration (CC50) at 24 h in data set [2] of over 100 µM. For the same compound, the negative-log EC50 (pEC50) in data set [5] is under 4.00; in data set [6], 7.80.

In the case of `CCCC[C@](C)(CO)Nc1nc(N)nc2cc(-c3cc(=O)n(C)cc3CN(C)CCOC)ccc12` [Example 55, (R)-4-(2-Amino-4-((1-hydroxy-2-methylhexan-2-yl)amino)quinazolin-7-yl)-5-(((2-methoxyethyl)(methyl)amino)methyl)-1-methylpyridin-2(1H)-one], the inhibition at 10 µM came out at 9.1% in data set [1]; 19.1% in data set [3]; 17% in data set [4]; 38.6% in data set [7] (setting [8]); 17.1% in data set [7] (setting [9]). The compound further came in with a CC50 at 24 h in data set [2] of over 100 µM. The pEC50 was under 4.00 in data set [5] and 7.41 in data set [6].

Turning to `CCCCN(C)Cc1cn(C)c(=O)cc1-c1ccc2c(N[C@@](C)(CO)CCCC)nc(N)nc2c1` [Example 56, (R)-4-(2-Amino-4-((1-hydroxy-2-methylhexan-2-yl)amino)quinazolin-7-yl)-5-((butyl(methyl)amino)methyl)-1-methylpyridin-2(1H)-one], the inhibition at 10 µM in data set [1] turned out to be 10.7%; in data set [3], 31.7%; in data set [4], 10.4%; in data set [7] (setting [8]), 33.6%; in data set [7] (setting [9]), 15.6%. Moreover, the negative logarithm of the EC50 (pEC50) in data set [5] is 4.95; in data set [6], 7.60.

In the case of `CCCCN(CCCC)Cc1c[nH]c(=O)cc1-c1cnc2c(N[C@@](C)(CO)CCCC)nc(N)nc2c1` [Example 14], in data set [2], the CC50 at 24 h was over 100 µM. In addition, the negative logarithm of the EC50 (pEC50) in data set [5] was under 4.00; in data set [6] it was 6.54.

`C=CCCN(C)Cc1c[nH]c(=O)cc1-c1cnc2c(N[C@](C)(CCCC)CNC(=O)c3cnn(C)c3)nc(N)nc2c1` [Example 44, (R)—N-(2-((2-Amino-7-(5-((but-3-en-1-yl(methyl)amino)methyl)-2-oxo-1,2-dihydropyridin-4-yl)pyrido[3,2-d]pyrimidin-4-yl)amino)-2-methylhexyl)-1-methyl-1H-pyrazole-4-carboxamide]: the CC50 at 24 h in data set [2] is over 100 µM. Moreover, the values for the pEC50 in data set [5] and in data set [6] were under 4.00 and 6.78, respectively.

The record behind these values is patent US20250163051A1, “PYRIMIDO AROMATIC RING COMPOUND AND USE THEREOF IN DRUG” (SUNSHINE LAKE PHARMA CO., LTD., priority 2022, published 2025).
